Experimental data: ChEMBL document CHEMBL5543109, “Novel β-Hairpin Antimicrobial Peptide Containing the β-Turn Sequence of -NG- and the Tryptophan Zippers Facilitate Self-Assembly into Nanofibers, Exhibiting Excellent Antimicrobial Performance” (J Med Chem, 2024)
≈ marks a conversion by molar mass, not a printed value. Calls of active or inactive are those of the source. No cut-off for these calls is given here.

Key:
[1] = system: Staphylococcus aureus; experiment: Antibacterial activity against methicillin resistant Staphylococcus aureus incubated for 18 hrs by broth microdilution method; assay type: functional
[2] = system: Staphylococcus aureus; experiment: Antibacterial activity against kanamycin resistant Staphylococcus aureus incubated for 18 hrs by broth microdilution method; assay type: functional
[3] = system: Staphylococcus aureus; experiment: Antibacterial activity against Staphylococcus aureus infected in BALB/c mouse systemic infection model assessed as reduction in spleen bacterial load at 10 mg/kg, ip measured after 8 hrs; assay type: functional, organism-based
[4] = system: Staphylococcus aureus; experiment: Antibacterial activity against Staphylococcus aureus S125 incubated for 18 hrs by broth microdilution method; assay type: functional
[5] = system: Klebsiella pneumoniae; experiment: Antibacterial activity against Klebsiella pneumoniae ATCC 700603 incubated for 18 hrs by broth microdilution method; assay type: functional
[6] = system: Escherichia coli; experiment: Antibacterial activity against Escherichia coli incubated for 18 hrs by broth microdilution method; assay type: functional
[7] = system: Escherichia coli; experiment: Antibacterial activity against Escherichia coli ATCC 25922 incubated for 18 hrs by broth microdilution method; assay type: functional
[8] = system: Staphylococcus epidermidis; experiment: Antibacterial activity against Staphylococcus epidermidis ATCC 12228 incubated for 18 hrs by broth microdilution method; assay type: functional
[9] = system: Staphylococcus aureus; experiment: Antibacterial activity against methicillin resistant Staphylococcus aureus 113 incubated for 18 hrs by broth microdilution method; assay type: functional
[10] = system: Escherichia coli; experiment: Antibacterial activity against rifampicin resistant Escherichia coli incubated for 18 hrs by broth microdilution method; assay type: functional
[11] = system: Staphylococcus aureus; experiment: Antibacterial activity against rifampicin resistant Staphylococcus aureus incubated for 18 hrs by broth microdilution method; assay type: functional
[12] = system: Bacillus subtilis; experiment: Antibacterial activity against Bacillus subtilis ATCC 23857 incubated for 18 hrs by broth microdilution method; assay type: functional
[13] = system: Escherichia coli; experiment: Antibacterial activity against kanamycin resistant Escherichia coli incubated for 18 hrs by broth microdilution method; assay type: functional
[14] = system: Staphylococcus aureus; experiment: Antibacterial activity against Staphylococcus aureus ATCC 25923 incubated for 18 hrs by broth microdilution method; assay type: functional
[15] = system: Pseudomonas aeruginosa; experiment: Antibacterial activity against Pseudomonas aeruginosa ATCC 27853 incubated for 18 hrs by broth microdilution method; assay type: functional
[16] = system: Staphylococcus aureus; experiment: Antibacterial activity against Staphylococcus aureus infected in BALB/c mouse systemic infection model assessed as reduction in kidney bacterial load at 10 mg/kg, ip measured after 8 hrs; assay type: functional, organism-based
[17] = system: Staphylococcus aureus; experiment: Antibacterial activity against Staphylococcus aureus S794 incubated for 18 hrs by broth microdilution method; assay type: functional
[18] = system: Staphylococcus aureus; experiment: Antibacterial activity against Staphylococcus aureus infected in BALB/c mouse systemic infection model assessed as reduction in liver bacterial load at 10 mg/kg, ip measured after 8 hrs; assay type: functional, organism-based
[19] = system: Staphylococcus aureus; experiment: Antibacterial activity against methicillin resistant Staphylococcus aureus 75 incubated for 18 hrs by broth microdilution method; assay type: functional
[20] = system: Pseudomonas aeruginosa; experiment: Drug resistance against Pseudomonas aeruginosa assessed as fold increase in MIC after 40 consecutive days of passages by sequential passaging method; assay type: functional; conditions: time 18 hrs
[21] = system: Staphylococcus aureus; experiment: Antibacterial activity against Staphylococcus aureus incubated for 18 hrs by broth microdilution method; assay type: functional
[22] = system: Staphylococcus aureus; experiment: Antibacterial activity against Staphylococcus aureus infected in BALB/c mouse systemic infection model assessed as reduction in lung bacterial load at 10 mg/kg, ip measured after 8 hrs; assay type: functional, organism-based
[23] = system: Staphylococcus aureus; experiment: Antibacterial activity against Staphylococcus aureus at 2 times MIC preincubated for 1 hr with chymotrypsin followed by enzyme inactivation and bacterial addition and measured after 18 hrs; assay type: functional; conditions: time 19 hrs
[24] = system: Bacillus subtilis; experiment: Bactericidal activity against Bacillus subtilis ATCC 23857 incubated for 18 hrs by broth microdilution method; assay type: functional
[25] = system: Staphylococcus aureus; experiment: Antibacterial activity against Staphylococcus aureus at 2 times MIC preincubated for 1 hr with trypsin followed by enzyme inactivation and bacterial addition and measured after 18 hrs; assay type: functional; conditions: time 19 hrs
[26] = system: Klebsiella pneumoniae; experiment: Bactericidal activity against Klebsiella pneumoniae ATCC 700603 incubated for 18 hrs by broth microdilution method; assay type: functional
[27] = system: Staphylococcus aureus; experiment: Bactericidal activity against Staphylococcus aureus ATCC 25923 incubated for 18 hrs by broth microdilution method; assay type: functional
[28] = system: Escherichia coli; experiment: Bactericidal activity against Escherichia coli ATCC 25922 incubated for 18 hrs by broth microdilution method; assay type: functional
[29] = Retention time of the compound; assay type: physicochemical
[30] = system: Erythrocyte; experiment: Hemolytic activity in mouse erythrocytes assessed as concentration required to cause 10% hemolysis incubated for 1 hr; assay type: toxicity, cell-based
[31] = system: Pseudomonas aeruginosa; experiment: Bactericidal activity against Pseudomonas aeruginosa ATCC 27853 incubated for 18 hrs by broth microdilution method; assay type: functional
[32] = Self-assembly property of compound in PBS assessed as beta-sheet nanofibers formation incubated for 1 hr by Thioflavin T based fluorescence spectrophotometer analysis; assay type: physicochemical; conditions: buffer, dose 0.5-1.5 µM
[33] = system: Staphylococcus epidermidis; experiment: Bactericidal activity against Staphylococcus epidermidis ATCC 12228 incubated for 18 hrs by broth microdilution method; assay type: functional
[34] = Self-assembly property of compound in PBS assessed as beta-sheet content; assay type: physicochemical; conditions: buffer
[35] = Self-assembly property of compound in water assessed as beta-sheet content; assay type: physicochemical
[36] = Self-assembly property of compound in 50% TFE assessed as beta-sheet content; assay type: physicochemical
[37] = Acute toxicity in ip dosed mouse by karber method; assay type: organism-based; conditions: in vivo, ip
[38] = Acute toxicity in mouse assessed as mortality rate at 25 mg/kg, ip by karber method; assay type: organism-based; conditions: in vivo
[39] = Acute toxicity in mouse assessed as hepatocyte necrosis at 25.8 mg/kg, ip by H and E staining based assay; assay type: organism-based; conditions: hepatocytes
[40] = Acute toxicity in mouse assessed as alveolar cavity wrinkling at 25.8 mg/kg, ip by H and E staining based assay; assay type: organism-based; conditions: in vivo
[41] = Acute toxicity in mouse assessed as lung cell necrosis at 25.8 mg/kg, ip by H and E staining based assay; assay type: organism-based; conditions: in vivo
[42] = Acute toxicity in mouse assessed as cellular atrophy at 25.8 mg/kg, ip by H and E staining based assay; assay type: organism-based; conditions: in vivo
[43] = Acute toxicity in mouse assessed as inflammatory cell infiltration at 25.8 mg/kg, ip by H and E staining based assay; assay type: organism-based; conditions: in vivo
[44] = Acute toxicity in mouse assessed as mortality rate at 21 mg/kg, ip by karber method; assay type: organism-based; conditions: in vivo
[45] = Acute toxicity in mouse assessed as tissue hemorrhage at 25.8 mg/kg, ip by H and E staining based assay; assay type: organism-based; conditions: in vivo
[46] = Acute toxicity in mouse assessed as mortality rate at 30 mg/kg, ip by karber method; assay type: organism-based; conditions: in vivo
[47] = Acute toxicity in mouse assessed as renal cell necrosis at 25.8 mg/kg, ip by H and E staining based assay; assay type: organism-based; conditions: in vivo

| Molecule | MIC [5] [µM] | MIC [7] [µM] | MIC [8] [µM] | MIC [12] [µM] | MIC [14] [µM] | MIC [15] [µM] | Activity [23] [%] | MBC [24] [µM] | Activity [25] [%] | MBC [26] [µM] | MBC [27] [µM] | MBC [28] [µM] | Retention_time [29] [min] | MHC [30] [µM] | MBC [31] [µM] | Activity [32] | MBC [33] [µM] | also measured |
| --- | --- | --- | --- | --- | --- | --- | --- | --- | --- | --- | --- | --- | --- | --- | --- | --- | --- | --- |
| O=C(O)c1cn(C2CC2)c2cc(N3CCNCC3)c(F)cc2c1=O [CIPROFLOXACIN] | 8 (≈ 2.65 µg/mL) | < 1 | 8 (≈ 2.65 µg/mL) | 2 (≈ 0.663 µg/mL) | 8 (≈ 2.65 µg/mL) | 2 (≈ 0.663 µg/mL) |  |  |  |  |  |  |  |  |  |  |  | MIC [1]: 256 µM (≈ 84.8 µg/mL); MIC [2]: 4 µM (≈ 1.33 µg/mL); Activity [3]: inactive; MIC [4]: 8 µM (≈ 2.65 µg/mL); MIC [6]: 0.5 µM (≈ 0.166 µg/mL); MIC [9]: 16 µM (≈ 5.3 µg/mL); MIC [10]: 0.5 µM (≈ 0.166 µg/mL); MIC [11]: 0.5 µM (≈ 0.166 µg/mL); MIC [13]: 2 µM (≈ 0.663 µg/mL); Activity [16]: Active; MIC [17]: 256 µM (≈ 84.8 µg/mL); Activity [18]: Active; MIC [19]: 256 µM (≈ 84.8 µg/mL); fold change (FC) [20]: 128; MIC [21]: 8 µM (≈ 2.65 µg/mL); Activity [22]: Active |
| NCCCC[C@@H](NC(=O)[C@H](N)Cc1c[nH]c2ccccc12)C(=O)N[C@H](Cc1c[nH]c2ccccc12)C(=O)N[C@H](CCCCN)C(=O)N[C@H](Cc1c[nH]c2ccccc12)C(=O)NCC(=O)NCC(=O)N[C@H](Cc1c[nH]c2ccccc12)C(=O)N[C@H](CCCCN)C(=O)N[C@H](Cc1c[nH]c2ccccc12)C(=O)N[C@H](CCCCN)C(=O)N[C@H](Cc1c[nH]c2ccccc12)C(N)=O | 8 (≈ 14.1 µg/mL) | 8 (≈ 14.1 µg/mL) | 4 (≈ 7.04 µg/mL) | 2 (≈ 3.52 µg/mL) | 4 (≈ 7.04 µg/mL) | 4 (≈ 7.04 µg/mL) | 100 | 8 (≈ 14.1 µg/mL) | 100 | 8 (≈ 14.1 µg/mL) | 4 (≈ 7.04 µg/mL) | 8 (≈ 14.1 µg/mL) | 14.321 | 66.3 | 32 (≈ 56.4 µg/mL) | Not Active | 4 (≈ 7.04 µg/mL) |  |
| NCCCC[C@@H](NC(=O)[C@H](N)Cc1c[nH]c2ccccc12)C(=O)N[C@H](Cc1c[nH]c2ccccc12)C(=O)N[C@H](CCCCN)C(=O)N[C@H](Cc1c[nH]c2ccccc12)C(=O)N1CCC[C@H]1C(=O)NCC(=O)N[C@H](Cc1c[nH]c2ccccc12)C(=O)N[C@H](CCCCN)C(=O)N[C@H](Cc1c[nH]c2ccccc12)C(=O)N[C@H](CCCCN)C(=O)N[C@H](Cc1c[nH]c2ccccc12)C(N)=O | 8 (≈ 14.4 µg/mL) | 8 (≈ 14.4 µg/mL) | 4 (≈ 7.2 µg/mL) | 2 (≈ 3.6 µg/mL) | 4 (≈ 7.2 µg/mL) | 8 (≈ 14.4 µg/mL) | 100 | 8 (≈ 14.4 µg/mL) | 100 | 8 (≈ 14.4 µg/mL) | 8 (≈ 14.4 µg/mL) | 8 (≈ 14.4 µg/mL) | 14.321 | 46 | 32 (≈ 57.6 µg/mL) | Not Active | 4 (≈ 7.2 µg/mL) | Activity [34]: 63%; Activity [35]: 63.8%; Activity [36]: 30.1% |
| POLYMYXIN B |  |  |  |  |  |  |  |  |  |  |  |  |  | > 512 |  |  |  | LD50 [37]: 25.68 mg/kg; Activity [38]: 60%; Activity [39]: Toxic; Activity [40]: Toxic; Activity [41]: Toxic; Activity [42]: Toxic; Activity [43]: Toxic; Activity [44]: 0%; Activity [45]: Toxic; Activity [46]: 80%; Activity [47]: Toxic |
